Laboratory results published in publication PMC7311950, “Potent Tetrahydroquinolone Eliminates Apicomplexan Parasites” (Frontiers in Cellular and Infection Microbiology, 2020).
Read-outs that look alike come from different tables or passages of the source.

What was measured:
[1] = system: T. gondii RH-YFP tachyzoites; assay: In vitro challenge assay, RH strain YFP tachyzoites in HFF; format: cell-based; settings: Toxoplasma gondii
[2] = system: T. gondii mitochondrial membrane potential; assay: T. gondii mitochondrial membrane potential, safranine method; format: cell-based, Toxoplasma gondii; settings: permeabilized T. gondii tachyzoites, safranin O
Procedure: The mitochondrial membrane potential was measured by the safranine method according to Vercesi et al. ([1998]). Freshly egressed T. gondii tachyzoites were filtered and washed twice with intracellular buffer (125 mM sucrose, 65 mM KCl, 10 mM HEPES-KOH buffer, pH 7.2, 1 mM MgCl2, and 2.5 mM potassium phosphate). After washing, the parasites were resuspended in the same buffer at 10^9/mL. An aliquot of 50 μL of this suspension was added to a cuvette containing Safranin O, 2.5 μM and Succinate 1 mM in final volume of 2 mL of the intracellular buffer. The fluorescence was measured with a Hitachi 7000 spectrofluorometer with settings Ex. 495/Em. 586. Once the baseline fluorescence was stable, 30 μM digitonin was added to permeabilize the parasites. Eighty five seconds after permeabilization, the THQ derivatives, dissolved in DMSO, were added. Five micromolars of FCCP (Carbonyl cyanide-4-(trifluoromethoxy) phenylhydrazone) was used as an uncoupler reference for calculations and its effect was considered 100%. We used similar conditions for measuring the mitochondrial membrane potential of mammalian cells with the following changes: the mammalian cells were resuspended at 10^8/mL. We also used 50 μL of this suspension for each experiment in a total volume of 2 mL. The substrate used for mammalian cells was 5 mM glutamate and 5 mM malate. A higher concentration of digitonin (50 μM) was used to permeabilize the mammalian cells. The compounds were added at ~400 s after permeabilization. Each experiment was repeated at least three times in duplicates. Statistical analysis, unpaired student t-test, was performed using GraphPad Prism 8.0 (GraphPad Software, Inc., San Diego, CA).
Mitochondrial membrane potential measurements were performed with permeabilized T. gondii tachyzoites in suspension using safranin O, which loads into polarized membranes [see section Materials and Methods in the Supplemental Materials (Vercesi et al., [1998])]. T. gondii tachyzoites were permeabilized with digitonin to allow the mitochondrial substrate succinate to cross the membrane and energize the mitochondrion. The fluorescence of safranin O, which loads into energized mitochondria was used to measure the membrane potential. The energized state of the mitochondrion is observed by a decrease in fluorescence (Figures 3A,C,E). Trifluoromethoxy carbonylcyanide phenylhydrazone (FCCP) was used to depolarize the membrane, which is observed as an increase in fluorescence (Figures 3A,B). JAG21 depolarized the membrane potential even at concentrations as low as 2 nM (Figures 3C,D). JAG21 and Atovaquone had similar effects on the mitochondrial membrane potential (Figure 3D). […]

[3] = RH-YFP tachyzoites in HFF, Figure 1A, read-out: Tachy IC50
[4] = T. gondii tachyzoites, initial library, read-out: IC50

SMILES: Cc1[nH]c2c(c(=O)c1-c1ccc(Oc3ccc(OC(F)(F)F)cc3)cc1)CCCC2 [JAG21, 2-Methyl-3-(4-(4-(Trifluoromethoxy)Phenoxy)Phenyl)-5,6,7,8-Tetrahydroquinolin-4-One]
- IC50 [1, 3]: 120 nM
- IC50 [1, 4]: 55 nM
- IC90 ([1]; supplement summary): < 50 nM
- concentration that depolarized the mitochondrial membrane potential [2]: ≤ 2 nM

SMILES: Cc1[nH]c2c(c(=O)c1-c1ccc(Oc3ccc(Cl)cc3)cc1)CCCC2 [JAG50]
- IC50 [1, 3]: 85 nM
- IC50 [1, 4]: 33 nM
- concentration that depolarized the mitochondrial membrane potential [2]: ≥ 200 nM
